The values that follow come from ChEMBL document CHEMBL2074571, “The mouse Bcrp1/Mxr/Abcp gene: amplification and overexpression in cell lines selected for resistance to topotecan, mitoxantrone, or doxorubicin” (Cancer Res, 1999).

Type in all cases: functional, cell-based
In data set [1] the target is T1, Broad substrate specificity ATP-binding cassette transporter ABCG2 (Mus musculus, UniProt Q7TMS5).
T1 sequence (Q7TMS5 whole entry): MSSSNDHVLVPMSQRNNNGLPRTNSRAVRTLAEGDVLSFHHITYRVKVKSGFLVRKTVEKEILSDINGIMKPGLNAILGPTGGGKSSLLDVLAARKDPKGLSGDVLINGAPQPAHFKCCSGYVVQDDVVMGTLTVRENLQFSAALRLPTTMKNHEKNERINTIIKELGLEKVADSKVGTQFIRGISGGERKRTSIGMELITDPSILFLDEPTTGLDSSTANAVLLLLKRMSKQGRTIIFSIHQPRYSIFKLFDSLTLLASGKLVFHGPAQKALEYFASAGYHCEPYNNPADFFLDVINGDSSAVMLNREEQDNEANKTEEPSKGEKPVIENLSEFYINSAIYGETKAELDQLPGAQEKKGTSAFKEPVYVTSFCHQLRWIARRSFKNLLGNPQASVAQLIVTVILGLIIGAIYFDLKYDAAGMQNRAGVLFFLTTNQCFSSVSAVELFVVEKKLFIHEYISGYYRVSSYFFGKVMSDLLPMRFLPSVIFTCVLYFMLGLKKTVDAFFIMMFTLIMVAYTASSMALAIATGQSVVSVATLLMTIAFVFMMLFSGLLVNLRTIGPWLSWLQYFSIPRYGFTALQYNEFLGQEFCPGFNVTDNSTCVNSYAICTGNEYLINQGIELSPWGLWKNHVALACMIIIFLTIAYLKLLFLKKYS
As to the kind of experiment: TP_TRANSPORTER: increase in mitoxantrone intracellular accumulation (Mitoxantrone: 20 uM, GF120918: 2 uM) in KOT52 and D320 cells. Conditions: kot52;d320, 2 µM.

The target in data set [2] is T1, Broad substrate specificity ATP-binding cassette transporter ABCG2. As to the kind of experiment: TP_TRANSPORTER: increase in mitoxantrone intracellular accumulation (Mitoxantrone: 20 uM, GF120918: 2 uM) in MEF3.8, M32 and T6400 cells. Particulars: mef3.8;m32;t6400, 2 µM.
Data set [3] shares this target. As to the kind of experiment: TP_TRANSPORTER: cell accumulation in MEF3.8, M32 and T6400 cells. Particulars: mef3.8;m32;t6400.
Data set [4] has the same target. The data set can be described thus: TP_TRANSPORTER: cell accumulation in KOT52 and D320 cells.

Regarding `COc1cc2c(cc1OC)CN(CCc1ccc(NC(=O)c3cccc4c(=O)c5cccc(OC)c5[nH]c34)cc1)CC2.Cl` [ELACRIDAR HYDROCHLORIDE], the Activity entry in data set [1] and in data set [2] was “inhibitor [+]” in each case.

On to `O=C1c2c(O)ccc(O)c2C(=O)c2c(NCCNCCO)ccc(NCCNCCO)c21` [MITOXANTRONE], for which the Activity result in data set [3] and in data set [4] was “substrate [+]” each time.
